The assay has as its system Nitric oxide synthase 1 (Bos taurus). Put plainly: Inactivation constant for Neuronal nitric oxide synthase (nNOS) from bovine brain.

These results are taken from ChEMBL document CHEMBL1130299, “Time-dependent inhibition of neuronal nitric oxide synthase by N-propargylguanidine” (Bioorg Med Chem Lett, 1997).

`C#CCNC(=N)N` had a K inact of 0.39 min⁻¹.
